Experimental data as given in patent publication US9884828B2, “Substituted cinnolines as inhibitors of LRRK2 kinase activity” (Imago Pharmaceuticals, Inc., priority 2011, dated 2018).
Like-named read-outs stand apart in the source and are kept apart here.

Molecular target: recombinant GST-LRRK2 (wild-type) (Homo sapiens (Human), UniProt Q5S007)
Experiment: LRRK2 TR-FRET peptide assay (in vitro kinase activity), wild-type
Format: biochemical
Procedure: Compounds as described herein (compounds of Formula I, e.g., compounds of the above Examples) are tested for their in vitro kinase activities using various LRRK2 (including LRRK2 G2019S mutant) assays. […] Serially diluted compounds (1% DMSO as co-solvent) were pre-incubated with recombinant GST-LRRK2 (wild-type, or G2019S mutant, Invitrogen) for 15 minutes at room temperature in 384-well Corning black plates. […] The inhibition of each well was calculated using the control and background readings for that plate. IC50 values were determined from dose-response curves using eight concentrations from the serial dilution of the test compounds.

[1] = 100 μM ATP, 100 nM biotin-LRRKtide substrate, 10 nM kinase, 60 minutes at room temperature

Sequence of recombinant GST-LRRK2 (wild-type) (Q5S007 whole entry): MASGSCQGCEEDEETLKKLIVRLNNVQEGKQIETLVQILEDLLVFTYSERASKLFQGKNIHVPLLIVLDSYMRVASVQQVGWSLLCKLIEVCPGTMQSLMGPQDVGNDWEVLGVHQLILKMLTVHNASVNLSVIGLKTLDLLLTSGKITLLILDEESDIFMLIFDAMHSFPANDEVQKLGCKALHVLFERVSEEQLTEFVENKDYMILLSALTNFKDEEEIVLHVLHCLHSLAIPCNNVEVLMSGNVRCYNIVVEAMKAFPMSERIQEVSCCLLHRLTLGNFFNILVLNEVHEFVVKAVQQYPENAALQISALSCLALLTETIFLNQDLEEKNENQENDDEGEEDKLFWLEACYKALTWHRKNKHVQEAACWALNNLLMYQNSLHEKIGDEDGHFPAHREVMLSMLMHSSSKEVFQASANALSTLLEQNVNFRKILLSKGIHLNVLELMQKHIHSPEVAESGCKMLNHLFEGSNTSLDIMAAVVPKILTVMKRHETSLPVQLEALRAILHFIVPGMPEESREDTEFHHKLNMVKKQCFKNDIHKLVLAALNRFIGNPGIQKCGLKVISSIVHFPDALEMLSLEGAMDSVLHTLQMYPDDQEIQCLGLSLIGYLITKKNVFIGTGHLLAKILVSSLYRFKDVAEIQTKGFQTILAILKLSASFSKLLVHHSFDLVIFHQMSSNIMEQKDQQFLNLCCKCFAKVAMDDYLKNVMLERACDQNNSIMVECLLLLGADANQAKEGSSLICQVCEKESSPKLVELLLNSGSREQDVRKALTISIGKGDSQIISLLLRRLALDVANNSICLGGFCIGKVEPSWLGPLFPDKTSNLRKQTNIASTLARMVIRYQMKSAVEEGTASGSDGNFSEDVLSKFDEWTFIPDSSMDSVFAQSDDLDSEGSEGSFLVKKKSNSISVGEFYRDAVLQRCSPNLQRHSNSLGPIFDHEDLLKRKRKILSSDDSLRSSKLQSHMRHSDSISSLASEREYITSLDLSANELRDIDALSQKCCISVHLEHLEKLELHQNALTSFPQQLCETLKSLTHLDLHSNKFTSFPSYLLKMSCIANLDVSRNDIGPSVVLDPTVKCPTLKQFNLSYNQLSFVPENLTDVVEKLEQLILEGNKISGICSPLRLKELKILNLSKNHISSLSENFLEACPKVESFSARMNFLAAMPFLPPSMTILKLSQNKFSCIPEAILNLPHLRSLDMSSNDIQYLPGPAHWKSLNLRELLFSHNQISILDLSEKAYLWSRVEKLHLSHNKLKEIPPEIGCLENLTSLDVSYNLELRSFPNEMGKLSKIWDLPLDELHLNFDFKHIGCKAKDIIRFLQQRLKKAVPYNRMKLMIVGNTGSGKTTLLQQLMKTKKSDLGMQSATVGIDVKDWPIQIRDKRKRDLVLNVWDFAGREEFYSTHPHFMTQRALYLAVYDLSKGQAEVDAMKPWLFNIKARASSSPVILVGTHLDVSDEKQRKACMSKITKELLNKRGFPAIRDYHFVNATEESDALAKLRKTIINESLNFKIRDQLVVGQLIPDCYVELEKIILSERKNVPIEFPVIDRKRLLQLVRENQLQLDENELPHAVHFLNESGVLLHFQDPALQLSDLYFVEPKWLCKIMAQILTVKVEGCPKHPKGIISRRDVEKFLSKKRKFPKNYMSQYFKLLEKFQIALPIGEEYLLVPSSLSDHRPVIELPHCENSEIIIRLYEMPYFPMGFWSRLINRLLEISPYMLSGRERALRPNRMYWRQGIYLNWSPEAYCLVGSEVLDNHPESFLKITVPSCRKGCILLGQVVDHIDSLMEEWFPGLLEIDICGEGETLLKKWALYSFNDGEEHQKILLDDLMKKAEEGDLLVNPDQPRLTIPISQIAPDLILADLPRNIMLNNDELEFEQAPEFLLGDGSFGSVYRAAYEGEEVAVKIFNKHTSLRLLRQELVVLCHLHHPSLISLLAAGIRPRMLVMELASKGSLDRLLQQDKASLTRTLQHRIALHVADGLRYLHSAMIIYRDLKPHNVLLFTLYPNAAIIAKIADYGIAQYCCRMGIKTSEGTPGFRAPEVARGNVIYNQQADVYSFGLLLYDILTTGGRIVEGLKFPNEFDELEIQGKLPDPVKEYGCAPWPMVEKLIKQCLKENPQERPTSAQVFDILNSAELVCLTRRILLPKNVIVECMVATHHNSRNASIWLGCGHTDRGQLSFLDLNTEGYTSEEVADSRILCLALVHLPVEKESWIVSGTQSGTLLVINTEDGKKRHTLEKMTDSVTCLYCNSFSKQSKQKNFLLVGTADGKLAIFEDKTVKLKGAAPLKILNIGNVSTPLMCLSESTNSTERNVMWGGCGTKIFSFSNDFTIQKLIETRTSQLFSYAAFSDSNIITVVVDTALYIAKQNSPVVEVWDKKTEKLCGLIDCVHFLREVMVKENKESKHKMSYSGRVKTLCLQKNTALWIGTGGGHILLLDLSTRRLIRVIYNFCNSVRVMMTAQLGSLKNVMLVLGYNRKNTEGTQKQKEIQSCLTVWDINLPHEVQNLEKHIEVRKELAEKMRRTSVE

IC50 [1] [nM] | SMILES | IC50 [nM]
140 | CS(=O)(=O)c1ccc(-c2ccc3c(N)c(C(N)=O)nnc3c2)cc1 [Compound 1-5, 4-amino-7-(4-(methylsulfonyl)phenyl)cinnoline-3-carboxamide] | –
15 | CC(C)Nc1c(C(N)=O)nnc2cc(-c3ccc(S(C)(=O)=O)cc3)ccc12 [Compound 2-17, 4-(isopropylamino)-7-(4-(methylsulfonyl)phenyl)cinnoline-3-carboxamide] | –
620 | CC(C)Nc1c(C#N)nnc2cc(-c3ccc(S(C)(=O)=O)cc3)ccc12 [Compound 2-18, 4-(isopropylamino)-7-(4-(methylsulfonyl)phenyl)cinnoline-3-carbonitrile] | –
10 | CS(=O)(=O)c1ccc(-c2ccc3c(NC4CCC4)c(C(N)=O)nnc3c2)cc1 [Compound 2-19, 4-(cyclobutylamino)-7-(4-(methylsulfonyl)phenyl)cinnoline-3-carboxamide] | –
180 | CN1CCC(Nc2c(C(N)=O)nnc3cc(-c4ccc(S(C)(=O)=O)cc4)ccc23)CC1 [Compound 2-21, 4-(1-methylpiperidin-4-ylamino)-7-(4-(methylsulfonyl)phenyl)cinnoline-3-carboxamide] | –
17 | CS(=O)(=O)c1ccc(-c2ccc3c(NC4CCOC4)c(C(N)=O)nnc3c2)cc1 (stereo not shown) [Compound 2-23, 7-(4-(methylsulfonyl)phenyl)-4-(tetrahydrofuran-3-ylamino)cinnoline-3-carboxamide] | –
180 | CS(=O)(=O)c1ccc(-c2ccc3c(NC4COC4)c(C(N)=O)nnc3c2)cc1 [Compound 2-27, 7-(4-(methylsulfonyl)phenyl)-4-(oxetan-3-ylamino)cinnoline-3-carboxamide] | –
47 | CS(=O)(=O)c1ccc(-c2ccc3c(NC4CC4)c(C(N)=O)nnc3c2)cc1 [Compound 2-29, 4-(cyclopropylamino)-7-(4-(methylsulfonyl)phenyl)cinnoline-3-carboxamide] | –
< 6 | CC[C@@H](C)Nc1c(C(N)=O)nnc2cc(-c3ccc(S(C)(=O)=O)cc3)ccc12 [Compound 2-37, (R)-(sec-butylamino)-7-(4-(methylsulfonyl)phenyl)cinnoline-3-carboxamide] | –
550 | CC[C@@H](C)Nc1c(C#N)nnc2cc(-c3ccc(S(C)(=O)=O)cc3)ccc12 [Compound 2-38, (R)-4-(sec-butylamino)-7-(4-(methylsulfonyl)phenyl)cinnoline-3-carbonitrile] | –
< 6 | C[C@@H](Nc1c(C(N)=O)nnc2cc(-c3ccc(S(C)(=O)=O)cc3)ccc12)C1CC1 [Compound 2-41, (R)-4-(1-cyclopropylethylamino)-7-(4-(methylsulfonyl)phenyl)cinnoline-3-carboxamide] | –
560 | C[C@@H](Nc1c(C#N)nnc2cc(-c3ccc(S(C)(=O)=O)cc3)ccc12)C1CC1 [Compound 2-42, (R)-4-(1-cyclopropylethylamino)-7-(4-(methylsulfonyl)phenyl)cinnoline-3-carbonitrile] | –
63 | C[C@@H](Nc1c(C(N)=O)nnc2cc(-c3ccc(S(C)(=O)=O)cc3)ccc12)C1CCOCC1 [Compound 2-90, (R)-7-(4-(methylsulfonyl)phenyl)-4-(1-(tetrahydro-2H-pyran-4-yl)ethylamino)cinnoline-3-carboxamide] | –
45 | CC(C)(C)Nc1c(C(N)=O)nnc2cc(-c3ccc(S(C)(=O)=O)cc3)ccc12 [Compound 2-91, 4-(tert-butylamino)-7-(4-(methylsulfonyl)phenyl)cinnoline-3-carboxamide] | –
17 | CS(=O)(=O)c1ccc(-c2ccc3c(NCC4CC4)c(C(N)=O)nnc3c2)cc1 [Compound 2-92] | –
46 | CCNc1c(C(N)=O)nnc2cc(-c3ccc(S(C)(=O)=O)cc3)ccc12 [Compound 2-93, 4-(ethylamino)-7-(4-(methylsulfonyl)phenyl)cinnoline-3-carboxamide] | –
120 | CNc1c(C(N)=O)nnc2cc(-c3ccc(S(C)(=O)=O)cc3)ccc12 [Compound 2-94, 4-(methylamino)-7-(4-(methylsulfonyl)phenyl)cinnoline-3-carboxamide] | –

The remaining lines, values behind:

SMILES | IC50 [1] [nM] | IC50 [nM]
NC(=O)c1nnc2cc(-c3cccc(N4CCOCC4)c3)ccc2c1N [Compound 1-6, 4-amino-7-(3-morpholinophenyl)cinnoline-3-carboxamide] | 120 | –
CN(C)c1ccc(-c2ccc3c(N)c(C(N)=O)nnc3c2)cc1 [Compound 1-7, 4-amino-7-(4-(dimethylamino)phenyl)cinnoline-3-carboxamide] | 130 | –
CN(C)c1cccc(-c2ccc3c(N)c(C(N)=O)nnc3c2)c1 [Compound 1-8, 4-amino-7-(3-(dimethylamino)phenyl)cinnoline-3-carboxamide] | 250 | –
NC(=O)c1nnc2cc(-c3ccc(N4CCOCC4)cc3)ccc2c1N [Compound 1-9, 4-amino-7-(4-morpholinophenyl)cinnoline-3-carboxamide] | 29700 | –
CC(C)(C)c1ccc2nnc(C(N)=O)c(N)c2c1 [Compound 1-186, 4-amino-6-tert-butylcinnoline-3-carboxamide] | 4000 | –
CS(=O)(=O)c1ccc(-c2ccc3c(NC4CCOCC4)c(C(N)=O)nnc3c2)cc1 [Compound 2-25, 7-(4-(methylsulfonyl)phenyl)-4-(tetrahydro-2H-pyran-4-ylamino)cinnoline-3-carboxamide] | 23 | –
CC(C)Nc1c(C(N)=O)nnc2cc(-c3cncnc3)ccc12 [Compound 2-33, 4-(isopropylamino)-7-(pyrimidin-5-yl)cinnoline-3-carboxamide] | 210 | –
CC(C)Nc1c(C(N)=O)nnc2cc(-c3cnn(C)c3)ccc12 [Compound 2-35, 4-(isopropylamino)-7-(1-methyl-1H-pyrazol-4-yl)cinnoline-3-carboxamide] | 9 | –
CC(C)Nc1c(C(N)=O)nnc2cc(-c3cccc(F)c3)ccc12 [Compound 2-45, 7-(3-fluorophenyl)-4-(isopropylamino)cinnoline-3-carboxamide] | 84 | –
CC(C)Nc1c(C(N)=O)nnc2cc(-c3ccccc3F)ccc12 [Compound 2-47, 7-(2-fluorophenyl)-4-(isopropylamino)cinnoline-3-carboxamide] | 210 | –
CC(C)Nc1c(C(N)=O)nnc2cc(-c3ccc(N4CCOCC4)cc3)ccc12 [Compound 2-49, 4-(isopropylamino)-7-(4-morpholinophenyl)cinnoline-3-carboxamide] | 9 | –
CC(C)Nc1c(C(N)=O)nnc2cc(-c3cccc(N4CCOCC4)c3)ccc12 [Compound 2-51, 4-(isopropylamino)-7-(3-morpholinophenyl)cinnoline-3-carboxamide] | 17 | –
CC(C)Nc1c(C(N)=O)nnc2cc(-c3cn[nH]c3)ccc12 [Compound 2-53, 4-(isopropylamino)-7-(1H-pyrazol-4-yl)cinnoline-3-carboxamide] | 9 | –
CC(C)Nc1c(C(N)=O)nnc2cc(-c3cccnc3)ccc12 [Compound 2-57, 4-(isopropylamino)-7-(pyridin-3-yl)cinnoline-3-carboxamide] | 33 | –
CS(=O)(=O)c1ccc(-c2ccc3c(NC45CC6CC(CC(C6)C4)C5)c(C(N)=O)nnc3c2)cc1 [Compound 2-88, 4-(1-adamantylamino)-7-(4-(methylsulfonyl)phenyl)cinnoline-3-carboxamide] | 420 | –
CS(=O)(=O)c1ccc(-c2ccc3c(NCC4CCOCC4)c(C(N)=O)nnc3c2)cc1 [Compound 2-89, 7-(4-(methylsulfonyl)phenyl)-4-((tetrahydro-2H-pyran-4-yl)methylamino)cinnoline-3-carboxamide] | 110 | –
C=Cc1ccc2c(NC(C)C)c(C(N)=O)nnc2c1 [Compound 2-95, 4-(isopropylamino)-7-vinylcinnoline-3-carboxamide] | 120 | –
COc1ccccc1-c1ccc2c(NC(C)C)c(C(N)=O)nnc2c1 [Compound 2-96, 4-(isopropylamino)-7-(2-methoxyphenyl)cinnoline-3-carboxamide] | 350 | –
COc1cccc(-c2ccc3c(NC(C)C)c(C(N)=O)nnc3c2)c1 [Compound 2-97, 4-(isopropylamino)-7-(3-methoxyphenyl)cinnoline-3-carboxamide] | 46 | –
COc1ccc(F)cc1-c1ccc2c(NC(C)C)c(C(N)=O)nnc2c1 [Compound 2-98, 7-(5-fluoro-2-methoxyphenyl)-4-(isopropylamino)cinnoline-3-carboxamide] | 590 | –
C=C(C)c1ccc2c(NC(C)C)c(C(N)=O)nnc2c1 [Compound 2-99, 4-(isopropylamino)-7-(prop-1-en-2-yl)cinnoline-3-carboxamide] | 76 | –
C[C@@H](Nc1c(C(N)=O)nnc2cc(-c3ccncc3)ccc12)C1CC1 [Compound 2-100, (R)-4-(1-cyclopropylethylamino)-7-(pyridin-4-yl)cinnoline-3-carboxamide] | – | < 6
C[C@@H](Nc1c(C(N)=O)nnc2cc(-c3cnn(C)c3)ccc12)C1CC1 [Compound 2-101, (R)-4-(1-cyclopropylethylamino)-7-(1-methyl-1H-pyrazol-4-yl)cinnoline-3-carboxamide] | 1 | –
C[C@@H](Nc1c(C(N)=O)nnc2cc(-c3cccc(C(=O)N(C)C)c3)ccc12)C1CC1 [Compound 2-102, (R)-4-(1-cyclopropylethylamino)-7-(3-(dimethylcarbamoyl)phenyl)cinnoline-3-carboxamide] | < 6 | –
COCc1ccccc1-c1ccc2c(N[C@H](C)C3CC3)c(C(N)=O)nnc2c1 [Compound 2-104, (R)-4-(1-cyclopropylethylamino)-7-(2-(methoxymethyl)phenyl)cinnoline-3-carboxamide] | 330 | –
C[C@@H](Nc1c(C(N)=O)nnc2cc(-c3cncc4ccccc34)ccc12)C1CC1 [Compound 2-105, (R)-4-(1-cyclopropylethylamino)-7-(isoquinolin-4-yl)cinnoline-3-carboxamide] | 380 | –
